≈ marks a conversion by molar mass, not a printed value. Positions of bridges follow the written chain, without caps; N, C: chain ends. Residues, ends and D or L forms follow the SMILES beside them.
Assays:
[1] = system: S. aureus 29213; experiment: Mouse model of subcutaneous infection; assay type: in vivo, ICR mice; conditions: 80× MIC
Method: (§1) To assess the antimicrobial activity of the peptide in vivo, a mouse model of subcutaneous infection was used ([Huang et al., 2011a]; [Omolo et al., 2017]). Female Institute for Cancer Research (ICR) mice (SPF, 20–25 g) were purchased from WeiTonglihua Co., Ltd. (Beijing, China), with eight animals per group. The mice were shaved on their backs and disinfected. S. aureus 29213 (100 μL) at a concentration of 1 × 10^8 CFU/mL was injected into the superficial skin of the mice. The mice were divided into four groups (n = 4), as follows: S. aureus + saline, S. aureus + S2 (80× MIC, 100 μL), S. aureus + vancomycin (Van) (80× MIC, 100 μL), and saline. S2, vancomycin, and saline were injected at the same site 1 h after infection. The mice were monitored over 24 h in an environmentally controlled room at 25 ± 1°C and 55 ± 5% relative humidity with a 12 h light/dark cycle.
(§2) To image the infected skin tissues, the mice were euthanized 24 h after the injection of S. aureus. Samples were fixed in 4% buffered paraformaldehyde and subjected to hematoxylin/eosin (HE) staining. The antimicrobial activity in vivo was determined by colony counting of infected skin samples. Skin homogenates were serially diluted in saline and incubated at 37°C for 24 h.

[2] = system: IL-6; experiment: Cytokine ELISA in infected skin; assay type: in vivo, ICR mice; conditions: 24 h after treatment, P < 0.05
Method: as §1
(§3) The mice were treated as described above. Skin samples were treated according to the manufacturer’s instructions. The levels of tumor necrosis factor-alpha (TNF-α), interleukin-6 (IL-6), and granulocyte-macrophage colony-stimulating factor (GM-CSF) in infected skin were measured using enzyme-linked immunosorbent assay (ELISA) kits following the manufacturer’s instructions.

[3] = system: TNF-α; experiment: Cytokine ELISA in infected skin; assay type: in vivo, ICR mice; conditions: 24 h after treatment, P < 0.05
Method: as §1, §3

[4] = system: S. aureus 29213; experiment: Histology (HE) of infected skin tissue; assay type: in vivo, ICR mice; conditions: 24 h after injection of S. aureus
Method: as §1, §2

[5] = system: E. coli 25922; experiment: MIC, modified microtiter dilution; assay type: cell-based, Escherichia coli; conditions: MHB, 2–7 × 10^5 CFU/ml, 37°C, 24 h, lowest concentration with no turbidity, at least three independent repeats
Description: (§4) The experiment was repeated at least three times independently.

[6] = system: E. coli UB1005; experiment: MIC, modified microtiter dilution; assay type: cell-based, Escherichia coli; conditions: MHB, 2–7 × 10^5 CFU/ml, 37°C, 24 h, no turbidity, at least three independent repeats
Description: as §4

[7] = system: E. coli K88; conditions: MHB, 2–7 × 10^5 CFU/ml, 37°C, 24 h, no turbidity, at least three independent repeats
Description: (§5) The bacterial strains Escherichia coli (E. coli) ATCC 25922, E. coli K88, E. coli K99, Pseudomonas aeruginosa (P. aeruginosa) ATCC 27853, Escherichia coli (E. coli) UB1005, Salmonella typhimurium 14028, Salmonella pullorum (S. pullorum) C7913, S. typhimurium C7731, S. aureus ATCC 29213, MRSA ATCC 43300, and S. aureus ATCC 25923 were obtained from the College of Veterinary Medicine, Northeast Agricultural University, China. Lactobacillus plantarum (L. plantarum) 8014, Lactobacillus rhamnosus (L. rhamnosus) 7469, L. rhamnosus 1.0911, L. rhamnosus 1.0936, and L. rhamnosus 1.0385 were obtained from the Key Laboratory of Food College, Northeast Agricultural University, China.
(§6) As in a previous study, the antimicrobial activities of the AMPs were investigated using a modified standard microtiter dilution method ([Dong et al., 2014]). The peptides were serially diluted with a solution containing 0.01% acetic acid and 0.2% bovine serum albumin (BSA, Sigma) in 96-well plates. The bacteria grew to the mid-log phase and then were dissolved in MHB at concentration of 2–7 × 10^5 CFU/ml. The peptides and bacterial solution were mixed in equal volume in a 37°C incubator for 24 h. […] Mueller-Hinton broth with microorganisms was used as the positive control, and the pure broth was used as the negative control. The experiment was repeated at least three times independently.

[8] = system: E. coli K99; conditions: MHB, 2–7 × 10^5 CFU/ml, 37°C, 24 h, no turbidity, at least three independent repeats
Description: as §5, §6

[9] = system: S. typhimurium 14028; experiment: MIC, modified microtiter dilution; assay type: cell-based, Salmonella typhimurium; conditions: MHB, 2–7 × 10^5 CFU/ml, 37°C, 24 h, no turbidity, at least three independent repeats
Description: as §4

[10] = system: S. typhimurium 7731; experiment: MIC, modified microtiter dilution; assay type: cell-based, Salmonella typhimurium; conditions: MHB, 2–7 × 10^5 CFU/ml, 37°C, 24 h, no turbidity, at least three independent repeats
Description: as §4

[11] = system: S. pullorum 7913; experiment: MIC, modified microtiter dilution; assay type: cell-based, Salmonella pullorum; conditions: MHB, 2–7 × 10^5 CFU/ml, 37°C, 24 h, no turbidity, at least three independent repeats
Description: as §4

[12] = system: P. aeruginosa 27853; experiment: MIC, modified microtiter dilution; assay type: cell-based, Pseudomonas aeruginosa; conditions: MHB, 2–7 × 10^5 CFU/ml, 37°C, 24 h, no turbidity, at least three independent repeats
Description: as §4

[13] = system: S. aureus 25923; experiment: MIC, modified microtiter dilution; assay type: cell-based, Staphylococcus aureus; conditions: MHB, 2–7 × 10^5 CFU/ml, 37°C, 24 h, no turbidity, at least three independent repeats
Description: as §4

[14] = system: S. aureus 29213; experiment: MIC, modified microtiter dilution; assay type: cell-based, Staphylococcus aureus; conditions: MHB, 2–7 × 10^5 CFU/ml, 37°C, 24 h, no turbidity, at least three independent repeats
Description: as §4

[15] = system: MRSA 43300; assay type: cell-based, Staphylococcus aureus; conditions: MHB, 2–7 × 10^5 CFU/ml, 37°C, 24 h, no turbidity, at least three independent repeats
Description: as §4

[16] = system: L. plantarum 8014; experiment: MIC, modified microtiter dilution; assay type: cell-based, Lactobacillus plantarum; conditions: 2–7 × 10^5 CFU/ml, 37°C, 24 h, no turbidity, at least three independent repeats
Description: as §4

[17] = system: L. rhamnosus 1.0385; experiment: MIC, modified microtiter dilution; assay type: cell-based, Lactobacillus rhamnosus; conditions: 2–7 × 10^5 CFU/ml, 37°C, 24 h, no turbidity, at least three independent repeats
Description: as §4

[18] = system: L. rhamnosus 1.0911; experiment: MIC, modified microtiter dilution; assay type: cell-based, Lactobacillus rhamnosus; conditions: 2–7 × 10^5 CFU/ml, 37°C, 24 h, no turbidity, at least three independent repeats
Description: as §4

[19] = system: L. rhamnosus 1.0936; experiment: MIC, modified microtiter dilution; assay type: cell-based, Lactobacillus rhamnosus; conditions: 2–7 × 10^5 CFU/ml, 37°C, 24 h, no turbidity, at least three independent repeats
Description: as §4

[20] = system: L. rhamnosus 7469; experiment: MIC, modified microtiter dilution; assay type: cell-based, Lactobacillus rhamnosus; conditions: 2–7 × 10^5 CFU/ml, 37°C, 24 h, no turbidity, at least three independent repeats
Description: as §4

[21] = system: S. aureus 29213; experiment: MIC in the presence of physiological salts; assay type: cell-based, Staphylococcus aureus; conditions: three independent repeats, unit not given in Table 4
Method: as §4
The MIC of peptides was determined in the presence of salts at physiological concentrations (150 mM NaCl, 4.5 mM KCl, 6 μM NH4Cl, 8 μM ZnCl2, 1 mM MgCl2, 2 mM CaCl2, and 4 μM FeCl3) as described previously ([Dong et al., 2014]). All experiments were performed three times independently.

[22] = system: panel of bacterial species; experiment: MIC against a panel of bacterial species (summary statements); assay type: cell-based; conditions: all tested Gram-negative bacteria except P. aeruginosa 27853
Description: as §4

[23] = system: RAW 264.7 cells; experiment: Cytotoxicity, MTT dye reduction assay; assay type: cell-based, murine; conditions: highest concentration of 128 μM, 4 h, three independent repeats
Method: The cytotoxicity of peptides was determined by healthy human erythrocytes and the murine macrophage cell line RAW 264.7 via a hemolysis assay and MTT dye reduction assay, respectively ([Wang et al., 2018]). In the hemolysis assay, fresh hRBCs from healthy people were centrifuged for 5 min at 1,000 × g and then washed three times with PBS (pH = 7.2). The 100 μL erythrocyte suspension and peptides were incubated for 1.5 h in an incubator at 37°C. The 96-well plates were centrifuged at 1,000 × g for 5 min, and the supernatants were carefully aspirated. The absorbance at 570 nm indicated the leakage of hemoglobin. The hRBCs in the PBS sample was used as the negative control, and 0.1% Triton X-100 addition served as the positive control. In the MTT dye reduction assay, 1.0–2.0 × 10^5 cells were plated in 96-well plates and then treated with various concentrations of peptides for 4 h at 37°C in a 5% CO2 incubator. Subsequently, 50 μL of MTT was added to the plated cells at a final concentration of 0.5 mg/mL and incubated for 4 h. Then, the cells were centrifuged at 1000 × g for 5 min, and the supernatants were discarded. Formazan crystals were dissolved in 150 μL of DMSO, and the OD570 nm was measured using a microplate reader (TECAN GENios F129004; TECAN, Austria). The experiment was repeated three times independently.

CN[C@H](CC(C)C)C(=O)N[C@H]1C(=O)N[C@@H](CC(N)=O)C(=O)N[C@H]2C(=O)N[C@H]3C(=O)N[C@H](C(=O)N[C@H](C(=O)O)c4cc(O)cc(O)c4-c4cc3ccc4O)[C@H](O)c3ccc(c(Cl)c3)Oc3cc2cc(c3O[C@@H]2O[C@H](CO)[C@@H](O)[C@H](O)[C@H]2O[C@H]2C[C@](C)(N)[C@H](O)[C@H](C)O2)Oc2ccc(cc2Cl)[C@H]1O [vancomycin, reference compound]
decrease in bacterial colonies at infection site versus control group ([1]; 100 μL injected at the infected site 1 h after infection, skin homogenate colony count after 24 h, P < 0.01): 10 fold | ulceration (lesion) size, length × width ([1]; 100 μL, 1 h after infection): significantly reduced ulceration sizes | IL-6 generation in infected skin [2]: suppressed | TNF-α generation in infected skin [3]: suppressed | histomorphological changes of skin tissue (HE) [4]: good recovery

C[C@@H]1NC(=O)[C@@H](N)CSSC[C@@H](C(=O)N[C@@H](CCCNC(=N)N)C(=O)N[C@@H](Cc2c[nH]c3ccccc23)C(=O)N[C@@H](Cc2c[nH]c3ccccc23)C(=O)N[C@@H](Cc2c[nH]c3ccccc23)C(=O)N[C@@H](CCCNC(=N)N)C(=O)N[C@@H](CCCNC(=N)N)C(N)=O)NC(=O)[C@H](Cc2ccccc2)NC(=O)[C@H](Cc2ccc(O)cc2)NC(=O)[C@H](CO)NC1=O [Peptide S1] (H-CASYFCRWWWRR-NH2; disulfide 1-6; N-terminus assumed)
MIC E. coli 25922 [5]: 8 µM (≈ 13.7 µg/mL) | MIC E. coli UB1005 [6]: 8 µM (≈ 13.7 µg/mL) | MIC E. coli K88 [7]: 32 µM (≈ 54.9 µg/mL) | MIC E. coli K99 [8]: 4 µM (≈ 6.87 µg/mL) | MIC S. typhimurium 14028 [9]: 64 µM (≈ 110 µg/mL) | MIC S. typhimurium 7731 [10]: 32 µM (≈ 54.9 µg/mL) | MIC S. pullorum 7913 [11]: 8 µM (≈ 13.7 µg/mL) | MIC P. aeruginosa 27853 [12]: >64 µM | MIC S. aureus 25923 [13]: 4 µM (≈ 6.87 µg/mL) | MIC S. aureus 29213 [14]: 4 µM (≈ 6.87 µg/mL) | MIC MRSA 43300 [15]: 4 µM (≈ 6.87 µg/mL) | MIC L. plantarum 8014 [16]: >64 µM | MIC L. rhamnosus 1.0385 [17]: >64 µM | MIC L. rhamnosus 1.0911 [18]: >64 µM | MIC L. rhamnosus 1.0936 [19]: >64 µM | MIC L. rhamnosus 7469 [20]: >64 µM | MIC against S. aureus 29213, FeCl3 ([21]; 4 μM FeCl3): 8 µM | MIC against S. aureus 29213, NH4Cl ([21]; 6 μM NH4Cl): 4 µM | MIC against S. aureus 29213, ZnCl2 ([21]; 8 μM ZnCl2): 1 µM | MIC against S. aureus 29213, MgCl2 ([21]; 1 mM MgCl2): 4 µM | MIC against S. aureus 29213, CaCl2 ([21]; 2 mM CaCl2): 8 µM | MIC against S. aureus 29213, KCl ([21]; 4.5 mM KCl): 4 µM | MIC against S. aureus 29213, NaCl ([21]; 150 mM NaCl): 4 µM | concentrations suppressing growth of tested Gram-negative bacteria [22]: 4 to 64 µM | RAW 264.7 cell survival rate [23]: 86%
